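Where inhibition never reached the appropriate level, the endpoint shown equals the highest concentration tested. Otherwise, values were interpolated linearly from a five-concentration, 48-hour dose response in 96-well plates. Here, GI50 denotes the concentration required for 50% inhibition of growth.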 The source made the active and inactive calls. No stated cut-off is given here; in the data, active = GI50 up to about 1.1 µM and inactive = higher.
Experiments:
Experiment in all cases: NCI tumour cell line growth inhibition, 48 h
[1] = test system: MOLT-4
[2] = test system: EKVX
[3] = test system: U-251
[4] = test system: SF-539
[5] = test system: UACC-257
[6] = test system: RPMI-8226
[7] = test system: NCI-H522
[8] = test system: TK-10
[9] = test system: DMS-273
[10] = test system: SW-620
[11] = test system: DMS-114
[12] = test system: SF-295
[13] = test system: HCC 2998
[14] = test system: COLO 205
[15] = test system: CCRF-CEM
[16] = test system: SNB-19
[17] = test system: IGROV-1
[18] = test system: HOP-92
[19] = test system: RXF 393
[20] = test system: KM-20L2
[21] = test system: A498
[22] = test system: SK-MEL-28
[23] = test system: DLD-1
[24] = test system: HCT-116
[25] = test system: SN12C
[26] = test system: HCT-15
[27] = test system: SK-OV-3
[28] = test system: SF-268
[29] = test system: OVCAR-4
[30] = test system: Malme-3M
[31] = test system: SK-MEL-5
[32] = test system: LOX IMVI
[33] = test system: KM12
[34] = test system: HOP-62
[35] = test system: UACC-62
[36] = test system: UO-31
[37] = test system: NCI-H460
[38] = test system: A549
[39] = test system: LXFL 529
[40] = test system: 786-0
[41] = test system: SR
[42] = test system: CAKI-1
[43] = test system: ACHN
[44] = test system: HOP-18
[45] = test system: HL-60
[46] = test system: SNB-75
[47] = test system: OVCAR-5
[48] = test system: M19-MEL
[49] = test system: SNB-78
[50] = test system: HT-29
[51] = test system: OVCAR-3
[52] = test system: M14
[53] = test system: OVCAR-8
[54] = test system: SK-MEL-2
[55] = test system: K562
[56] = test system: XF498
[57] = test system: NCI-H23

Which GI50 [1] does the source give for C[N+]1(C)C/C(=C\c2ccncc2)C(=O)/C(=C/c2ccncc2)C1 here?
Its GI50 is > 100 µM (inactive).

And the GI50 [2]?
The GI50 was > 100 µM (inactive).

And the GI50 [3]?
Its GI50 is 85.5 µM (inactive).

And the GI50 [4]?
The GI50 was > 100 µM (inactive).

What about the GI50 [5] of the same compound?
Its GI50 is > 100 µM (inactive).

And the GI50 [6]?
Its GI50 is 63.8 µM (inactive).

What about the GI50 [7] of the same compound?
The GI50 was 19.6 µM (inactive).

And the GI50 [8]?
The GI50 was > 100 µM (inactive).

And the GI50 [9]?
The GI50 was > 100 µM (inactive).

What about the GI50 [10] of the same compound?
Its GI50 is 52.7 µM (inactive).

What about the GI50 [11] of the same compound?
The GI50 was > 100 µM (inactive).

And the GI50 [12]?
The GI50 was > 100 µM (inactive).

What about the GI50 [13] of the same compound?
The GI50 was > 100 µM (inactive).

What about the GI50 [14] of the same compound?
The GI50 was > 100 µM (inactive).

What about the GI50 [15] of the same compound?
The GI50 was 37.1 µM (inactive).

And the GI50 [16]?
Its GI50 is > 100 µM (inactive).

What about the GI50 [17] of the same compound?
The GI50 was > 100 µM (inactive).

And the GI50 [18]?
The GI50 was > 100 µM (inactive).

And the GI50 [19]?
Its GI50 is > 100 µM (inactive).

What about the GI50 [20] of the same compound?
The GI50 was > 100 µM (inactive).

What about the GI50 [21] of the same compound?
Its GI50 is > 100 µM (inactive).

And the GI50 [22]?
Its GI50 is > 100 µM (inactive).

What about the GI50 [23] of the same compound?
Its GI50 is > 100 µM (inactive).

And the GI50 [24]?
Its GI50 is 38.5 µM (inactive).

And the GI50 [25]?
Its GI50 is > 100 µM (inactive).

What about the GI50 [26] of the same compound?
Its GI50 is > 100 µM.

What about the GI50 [27] of the same compound?
The GI50 was > 100 µM (inactive).

And the GI50 [28]?
Its GI50 is 25.2 µM (inactive).

What about the GI50 [29] of the same compound?
The GI50 was > 100 µM (inactive).

And the GI50 [30]?
The GI50 was > 100 µM (inactive).

And the GI50 [31]?
Its GI50 is > 100 µM (inactive).

What about the GI50 [32] of the same compound?
Its GI50 is > 100 µM (inactive).

What about the GI50 [33] of the same compound?
Its GI50 is > 100 µM (inactive).

What about the GI50 [34] of the same compound?
Its GI50 is > 100 µM (inactive).

And the GI50 [35]?
Its GI50 is > 100 µM (inactive).

And the GI50 [36]?
The GI50 was > 100 µM (inactive).

What about the GI50 [37] of the same compound?
The GI50 was > 100 µM (inactive).

What about the GI50 [38] of the same compound?
The GI50 was > 100 µM (inactive).

And the GI50 [39]?
Its GI50 is > 100 µM (inactive).

What about the GI50 [40] of the same compound?
Its GI50 is > 100 µM (inactive).

And the GI50 [41]?
The GI50 was > 100 µM (inactive).

And the GI50 [42]?
The GI50 was > 100 µM (inactive).

What about the GI50 [43] of the same compound?
The GI50 was > 100 µM (inactive).

And the GI50 [44]?
The GI50 was > 100 µM (inactive).

What about the GI50 [45] of the same compound?
The GI50 was 24.8 µM (inactive).

And the GI50 [46]?
The GI50 was > 100 µM (inactive).

And the GI50 [47]?
Its GI50 is > 100 µM (inactive).

And the GI50 [48]?
The GI50 was > 100 µM (inactive).

What about the GI50 [49] of the same compound?
Its GI50 is > 100 µM (inactive).

What about the GI50 [50] of the same compound?
The GI50 was > 100 µM (inactive).

What about the GI50 [51] of the same compound?
The GI50 was > 100 µM (inactive).

And the GI50 [52]?
Its GI50 is > 100 µM (inactive).

What about the GI50 [53] of the same compound?
The GI50 was > 100 µM (inactive).

How did the GI50 [1] turn out when Cc1ccc(C2NC(=O)c3ccccc3N2)s1 (stereo not given) was run?
Its GI50 is 3.07 µM (inactive).

What about the GI50 [2] of the same compound?
The GI50 was > 100 µM (inactive).

And the GI50 [3]?
Its GI50 is 4.6 µM (inactive).

What about the GI50 [4] of the same compound?
The GI50 was 3.28 µM (inactive).

What about the GI50 [5] of the same compound?
Its GI50 is 2.32 µM (inactive).

What about the GI50 [6] of the same compound?
The GI50 was 4.69 µM (inactive).

What about the GI50 [54] of the same compound?
The GI50 was 3.75 µM (inactive).

What about the GI50 [55] of the same compound?
Its GI50 is 3.2 µM (inactive).

What about the GI50 [7] of the same compound?
Its GI50 is 4.26 µM (inactive).

What about the GI50 [8] of the same compound?
Its GI50 is > 100 µM (inactive).

And the GI50 [9]?
Its GI50 is 4.25 µM (inactive).

And the GI50 [56]?
Its GI50 is 3.21 µM (inactive).

What about the GI50 [10] of the same compound?
The GI50 was 2.94 µM (inactive).

And the GI50 [11]?
The GI50 was 5.21 µM (inactive).

What about the GI50 [12] of the same compound?
The GI50 was 2.37 µM (inactive).

And the GI50 [13]?
Its GI50 is 7.05 µM (inactive).

What about the GI50 [15] of the same compound?
The GI50 was 3.27 µM (inactive).

What about the GI50 [16] of the same compound?
Its GI50 is 59.6 µM (inactive).

What about the GI50 [17] of the same compound?
The GI50 was 6.67 µM (inactive).

What about the GI50 [19] of the same compound?
Its GI50 is 5.86 µM (inactive).

What about the GI50 [20] of the same compound?
The GI50 was 4.55 µM (inactive).

What about the GI50 [21] of the same compound?
The GI50 was 6.78 µM (inactive).

And the GI50 [22]?
Its GI50 is 5.81 µM (inactive).

What about the GI50 [23] of the same compound?
The GI50 was 5.02 µM (inactive).

And the GI50 [24]?
Its GI50 is 6.31 µM (inactive).

And the GI50 [25]?
The GI50 was 4.79 µM (inactive).

And the GI50 [26]?
Its GI50 is 4.09 µM.

What about the GI50 [27] of the same compound?
The GI50 was 5.4 µM (inactive).

What about the GI50 [28] of the same compound?
The GI50 was 8 µM (inactive).

And the GI50 [30]?
Its GI50 is 4.8 µM (inactive).

And the GI50 [31]?
Its GI50 is 2.88 µM (inactive).

And the GI50 [32]?
The GI50 was 6.55 µM (inactive).

And the GI50 [33]?
The GI50 was 4.61 µM (inactive).

And the GI50 [34]?
The GI50 was 4.37 µM (inactive).

And the GI50 [35]?
Its GI50 is 5.51 µM (inactive).

And the GI50 [36]?
The GI50 was 7.38 µM (inactive).

And the GI50 [37]?
Its GI50 is 4.25 µM (inactive).

What about the GI50 [57] of the same compound?
The GI50 was 4.36 µM (inactive).

And the GI50 [38]?
The GI50 was 8.83 µM (inactive).

And the GI50 [39]?
The GI50 was 7.64 µM (inactive).

What about the GI50 [40] of the same compound?
The GI50 was 5.69 µM (inactive).

And the GI50 [41]?
The GI50 was 8.3 µM (inactive).

What about the GI50 [43] of the same compound?
The GI50 was > 100 µM (inactive).

And the GI50 [45]?
Its GI50 is 2.92 µM (inactive).

And the GI50 [47]?
Its GI50 is 10 µM (inactive).

And the GI50 [48]?
Its GI50 is 6.12 µM (inactive).

And the GI50 [49]?
The GI50 was 33.2 µM (inactive).

And the GI50 [51]?
The GI50 was 3.8 µM (inactive).

What about the GI50 [52] of the same compound?
Its GI50 is 8.05 µM (inactive).

And the GI50 [53]?
The GI50 was 8.43 µM (inactive).

What does the source list for CCCCCCCCCCCCCB(O)O?
GI50 [3]: > 100 µM (inactive); GI50 [54]: > 100 µM (inactive); GI50 [9]: > 100 µM (inactive); GI50 [56]: > 100 µM (inactive); GI50 [10]: > 100 µM (inactive); GI50 [11]: > 100 µM (inactive); GI50 [15]: > 100 µM (inactive); GI50 [16]: > 100 µM (inactive); GI50 [57]: > 100 µM (inactive); GI50 [47]: > 100 µM (inactive); GI50 [51]: > 100 µM (inactive); GI50 [52]: > 100 µM (inactive)
